Assay results from ChEMBL document CHEMBL1133560, “Design and synthesis of new orally active nonpeptidic inhibitors of human neutrophil elastase” (J Med Chem, 2000).

Columns and labels:
[1] = Percent oral bioavailability evaluated in monkey; assay type: ADME, organism-based; details: cercopithecidae, in vivo
[2] = (§1) Effective dose determined in an animal model which lasted for more than 8 h; assay type: functional
[3] = Percent oral bioavailability evaluated in rat; assay type: ADME, organism-based; details: in vivo
[4] = Percent oral bioavailability evaluated in dog; assay type: ADME, organism-based, Canis lupus familiaris; details: in vivo
[5] = as §1; assay type: ADME

SMILES | bioavailability [1] | ED50 [2] | bioavailability [3] | bioavailability [4] | ED50 [5]
CC(C)C(NC(=O)Cn1c(-c2ccccc2)ncc(N)c1=O)C(=O)c1nnc(C(C)(C)C)o1 (stereo not given) | 18% | 1.4 mg/kg | 51% | 31% | 
CC(C)C(NC(=O)Cn1c(-c2ccc(F)cc2)ncc(N)c1=O)C(=O)C(F)(F)F (stereo not given) |  |  |  |  | 7.5 mg/kg
